# Results taken from patent publication US12509445B2, “Herbicidally active 4-cyclopropyl-6-[4-(trifluormethyl)pyrazol-1-yl)]pyrimidines” (Bayer Aktiengesellschaft, priority 2019, dated 2025).
# Key:
# Assay type in all cases: in vivo
# [1] = system: Avena fatua (AVEFA); experiment: Pre-emergence herbicidal action; conditions: 320 g/ha, visual scoring after about 3 weeks vs untreated controls, 100% = plants have died
# Text: (§1) The abbreviations used here have the following meanings: • ABUTH Abutilon theophrasti • AMARE Amaranlhus retroflexus • CYPES Cyperus serotinus • ECHCGEchinocloa crus galli • LOLRI Lolium rigidum Gaudin • PHBPU Pharbitis purpurcum • SETVI Setaria viridis • VERPE Veronica persica • ALOMY Alopccurus myosuroides • AVEFA Avena fatua • DIGSA Digitaria sanguinalis • LOLMU Lolium multiflorum • MATIN Matricaria inodora • POLCO Polygonum convolvulus • STEME Stellaria media • VIOTR Viola tricolor
# (§2) Seeds of monocotyledonous and dicotyledonous weed plants and crop plants are placed in plastic or organic plant pots and covered with soil. The compounds of the invention, formulated in the form of wettable powders (WP) or as emulsion concentrates (EC), are then applied onto the surface of the covering soil as aqueous suspension or emulsion with addition of 0.5% additive at a water application rate of 600 l/ha (converted). After the treatment, the pots are placed in a greenhouse and kept under good growth conditions for the trial plants. After about 3 weeks, the effect of the preparations is scored visually in comparison with untreated controls as percentages. For example, 100% activity=the plants have died, 0% activity=like control plants.
# [2] = system: Amaranthus retroflexus (AMARE); experiment: Pre-emergence herbicidal action; conditions: 320 g/ha, visual scoring after about 3 weeks vs untreated controls, 100% = plants have died
# Text: as §1, §2
# [3] = system: Veronica persica (VERPE); experiment: Pre-emergence herbicidal action; conditions: 320 g/ha, visual scoring after about 3 weeks vs untreated controls, 100% = plants have died
# Text: as §1, §2
# [4] = system: Pharbitis purpurea (PHBPU); experiment: Pre-emergence herbicidal action; conditions: 320 g/ha, visual scoring after about 3 weeks vs untreated controls, 100% = plants have died
# Text: as §1, §2
# [5] = system: Digitaria sanguinalis (DIGSA); experiment: Pre-emergence herbicidal action; conditions: 320 g/ha, visual scoring after about 3 weeks vs untreated controls, 100% = plants have died
# Text: as §1, §2
# [6] = system: Lolium rigidum Gaudin (LOLRI); experiment: Pre-emergence herbicidal action; conditions: 320 g/ha, visual scoring after about 3 weeks vs untreated controls, 100% = plants have died
# Text: as §1, §2
# [7] = system: Setaria viridis (SETVI); experiment: Post-emergence herbicidal action
# Procedure: (§3) Seeds of monocotyledonous and dicotyledonous weeds and crop plants are placed in sandy loam in plastic or organic plant pots, covered with soil and cultivated in a greenhouse under controlled growth conditions. 2 to 3 weeks after sowing, the test plants are treated at the one-leaf stage. The compounds of the invention, formulated in the form of wettable powders (WP) or as emulsion concentrates (EC), are then sprayed onto the green parts of the plants as aqueous suspension or emulsion with addition of 0.5% additive at a water application rate of 600 l/ha (converted). After the test plants have been kept in the greenhouse under optimum growth conditions for about 3 weeks, the activity of the preparations is rated visually in comparison to untreated controls. For example, 100% activity=the plants have died, 0% activity=like control plants.
# as §1
# (§4) The compounds according to the invention were tested by the post-emergence and pre-emergence methods under the conditions described above for comparative purposes with the structurally closest compounds known from WO 2005/089551 A1 (D1).
# [8] = system: Matricaria inodora (MATIN); experiment: Post-emergence herbicidal action; conditions: 80 g of a.i./ha, comparative test
# Procedure: as §3, §1, §4
# [9] = system: Alopecurus myosuroides (ALOMY); experiment: Post-emergence herbicidal action
# Procedure: as §3, §1, §4
# [10] = system: Echinochloa crus-galli (ECHCG); experiment: Post-emergence herbicidal action
# Procedure: as §3, §1, §4
# [11] = system: harmful plants such as Alopecurus myosuroides, Amaranthus retroflexus, Avena fatua, Echinochloa crus-galli, Matricaria inodora, Pharbitis purpurea, Polygonum …; experiment: Pre-emergence herbicidal action, summary in text; conditions: pre-emergence treatment
# Text: as §2
# At the same time, some compounds according to the invention leave graminaceous crops such as barley, wheat, rye, millet/sorghum, maize, rice or sugarcane virtually undamaged when applied by the pre-emergence method, even at high active compound dosages. Some compounds are additionally also benign to dicotyledonous crops such as soya, cotton, oilseed rape or sugarbeet.
# [12] = system: Amaranthus retroflexus (AMARE); experiment: Post-emergence herbicidal action; conditions: 320 g/ha, visual rating after about 3 weeks vs untreated controls, 100% = plants have died
# Procedure: as §3, §1
# [13] = system: Veronica persica (VERPE); experiment: Post-emergence herbicidal action; conditions: 320 g/ha, visual rating after about 3 weeks vs untreated controls, 100% = plants have died
# Procedure: as §3, §1
# [14] = system: Pharbitis purpurea (PHBPU); experiment: Post-emergence herbicidal action; conditions: 320 g/ha, visual rating after about 3 weeks vs untreated controls, 100% = plants have died
# Procedure: as §3, §1
# [15] = system: Viola tricolor (VIOTR); experiment: Post-emergence herbicidal action; conditions: 320 g/ha, visual rating after about 3 weeks vs untreated controls, 100% = plants have died
# Procedure: as §3, §1
# [16] = system: Lolium rigidum Gaudin (LOLRI); experiment: Post-emergence herbicidal action; conditions: 320 g/ha, visual rating after about 3 weeks vs untreated controls, 100% = plants have died
# Procedure: as §3, §1
# [17] = system: Stellaria media (STEME); experiment: Pre-emergence herbicidal action
# Text: as §1, §2, §4
# [18] = system: Setaria viridis (SETVI); experiment: Pre-emergence herbicidal action
# Text: as §1, §2, §4
# [19] = system: Matricaria inodora (MATIN); experiment: Pre-emergence herbicidal action
# Text: as §1, §2, §4
# [20] = system: Alopecurus myosuroides (ALOMY); experiment: Pre-emergence herbicidal action
# Text: as §1, §2, §4
# [21] = system: Viola tricolor (VIOTR); experiment: Pre-emergence herbicidal action
# Text: as §1, §2, §4
# [22] = system: Polygonum convolvulus (POLCO); experiment: Pre-emergence herbicidal action
# Text: as §1, §2, §4
# [23] = system: Echinochloa crus-galli (ECHCG); experiment: Pre-emergence herbicidal action
# Text: as §1, §2, §4
# [24] = 80 g of a.i./ha, comparative test
# [25] = 320 g/ha, visual rating after about 3 weeks vs untreated controls, 100% = plants have died
# [26] = 320 g/ha, visual scoring after about 3 weeks vs untreated controls, 100% = plants have died
smiles,measurement,setting,value
FC(F)Oc1cc(Oc2nc(C3CC3)cc(-n3cc(C(F)(F)F)cn3)n2)ccn1 [Example I-003],Pre-emergence action AVEFA,[1],90%
same,Pre-emergence action AMARE,[2],100%
same,Pre-emergence action VERPE,[3],100%
same,Pre-emergence action PHBPU,[4],100%
same,Pre-emergence action DIGSA,[5],100%
same,Pre-emergence action LOLRI,[6],100%
same,Herbicidal action against SETVI,[7]; [24],60%
same,Post-emergence action SETVI,[7]; [25],80%
same,Herbicidal action against MATIN,[8],60%
same,Herbicidal action against ALOMY,[9]; [24],60%
same,Post-emergence action ALOMY,[9]; [25],90%
same,Herbicidal action against ECHCG,[10]; [24],80%
same,Post-emergence action ECHCG,[10]; [25],90%
same,herbicidal action against harmful plants (in words),[11],good herbicidal action
same,Post-emergence action AMARE,[12],90%
same,Post-emergence action VERPE,[13],90%
same,Post-emergence action PHBPU,[14],80%
same,Post-emergence action VIOTR,[15],90%
same,Post-emergence action LOLRI,[16],90%
same,Herbicidal action against STEME,[17]; [24],90%
same,Pre-emergence action STEME,[17]; [26],100%
same,Herbicidal action against SETVI,[18]; [24],100%
same,Pre-emergence action SETVI,[18]; [26],100%
same,Herbicidal action against MATIN,[19]; [24],90%
same,Pre-emergence action MATIN,[19]; [26],90%
same,Herbicidal action against ALOMY,[20]; [24],60%
same,Pre-emergence action ALOMY,[20]; [26],100%
same,Herbicidal action against VIOTR,[21]; [24],100%
same,Pre-emergence action VIOTR,[21]; [26],100%
same,Herbicidal action against POLCO,[22]; [24],20%
same,Pre-emergence action POLCO,[22]; [26],90%
same,Herbicidal action against ECHCG,[23]; [24],30%
same,Pre-emergence action ECHCG,[23]; [26],90%
